“And” between values parts separate entries of the source, which are not always exact repeats. Equal entries are not always repeated.
Tests used:
[1] = format: in vivo, CD-1 mice; conditions: no venom; 60 µg of each drug, i.v.; listed as M
[2] = system: Bitis arietans venom SVMP activity; assay: fluorogenic SVMP assay; format: biochemical; conditions: independent repeats
Experimental: (§1) The SVMP assay measuring metalloproteinase activity and the plasma assay measuring coagulation in the presence or absence of venoms and inhibitors were performed as previously described. The SVMP assay kinetically measured cleavage of a quenched fluorogenic substrate (ES010, R&D Biosystems) by venom in the presence or absence of inhibitors.
(§2) Briefly, 10 µl of the substrate (supplied as a 6.2 mM stock) was used per 5 ml reaction buffer (150 mM NaCl, 50 mM Tris-Cl pH 7.5). Reactions consisted of 10 µl of venom ± inhibitors in PBS and 90 µl of substrate. Venoms were used at 1 µg/reaction and final inhibitor concentrations ranged from 150 µM to 150 nM. Samples were preincubated for 30 min at 37 °C and pipetted in triplicate into 384-well plates (Greiner). Thereafter, data was collected on an Omega FLUOstar (BMG Labtech) instrument at an excitation wavelength of 320 nm and emission wavelength of 405 nm at 25 °C for 1 h. The areas under the curve (AUCs) in the 0–40 min interval were calculated for each sample using MARS data analysis software v3.31 (BMG Labtech); this time point was chosen as the time where all fluorescence curves had reached a plateau (maximum fluorescence). For comparing venom-only samples, the means of at least three independent experimental runs for each condition, expressed as AUCs (n ≥ 3), were plotted at each inhibitor concentration with standard error of the mean (SEM). To determine inhibitor efficacy, the AUCs for each of the samples that consisted of venom + inhibitors were transformed and expressed as percentages of the venom-only sample (where the venom was 100%). The negative control (PBS-only) was also expressed relative to the venom, and the variation in background was presented as an interval delineated by the lowest and highest values in the PBS-only samples across concentrations and inhibitors for a specific venom.

[3] = system: Echis carinatus venom SVMP activity; assay: fluorogenic SVMP assay; format: biochemical; conditions: inhibitor 15 µM, independent repeats
Experimental: as §1, §2

[4] = system: Echis ocellatus venom SVMP activity; assay: fluorogenic SVMP assay; format: biochemical; conditions: independent repeats
Experimental: as §1, §2

[5] = system: Bothrops asper venom SVMP activity; assay: fluorogenic SVMP assay; format: biochemical; conditions: independent repeats
Experimental: as §1, §2

E. ocellatus venom = assay: in vivo preincubation model of envenoming (i.v.); design: species or system CD-1 mice
Experimental: All animal experiments were conducted using protocols approved by the Animal Welfare and Ethical Review Boards of the Liverpool School of Tropical Medicine and the University of Liverpool, and performed in specific pathogen-free conditions under licensed approval (PPL #4003718 and #P5846F90) of the UK Home Office and in accordance with the Animal [Scientific Procedures] Act 1986 and institutional guidance on animal care. All experimental animals (18–20 g [4–5 weeks old], male, CD-1 mice, Charles River, UK) were housed in groups of five with environmental enrichment, water and food ad libitum and their health monitored daily during acclimatization. The experimental design was based upon 3R-refined WHO-recommended protocols[28],[41], with animals randomized and observers being blinded to the experimental condition. The median lethal doses (venom LD50) used for E. ocellatus (Nigeria), E. carinatus (India), B. asper (Costa Rica), D. russelii (Sri Lanka) and B. arietans (Nigeria) venoms were previously determined[25],[41],[44],[45].
All experimental doses were prepared to a volume of 200 µl in PBS and incubated at 37 °C for 30 min prior to their intravenous injection via the tail vein. Animals were monitored for 6 h, and euthanized via rising concentrations of CO2 upon observation of previously defined humane end points that are predicators of lethality (e.g., seizure, pulmonary distress, paralysis, hemorrhage)[28]. Deaths, time of death, and survivors were recorded; where death/time of death actually represents the implementation of euthanasia based on defined humane end points.
For all experimental animals described above, blood samples were collected via cardiac puncture immediately post-euthanasia. Plasma was separated by centrifugation at 400 × g for 10 min and stored at −80 °C. We assessed the levels of thrombin-antithrombin complexes (TAT) and soluble thrombomodulin using mouse ELISA Kits (ab137994 and ab209880, Abcam), following the manufacturer’s protocol. All available plasma samples (some were unobtainable via cardiac puncture due to extensive internal hemorrhage) were assessed if the time of death within the group varied, whereas three samples were randomly chosen if the time of death was the same (e.g., either very rapid death within 2 min, or survival until the end of the experiment [360 min or 24 h]). The resulting data was plotted as the median of duplicate measurements for each animal and is presented with standard deviations (SDs).

[6] = system: SVMP bioactivity of the four active venoms (E. ocellatus, E. carinatus, B. asper, B. arietans); assay: in vitro kinetic fluorogenic SVMP assay, viper venoms overall; format: biochemical; conditions: four active venoms; marimastat 150 nM to 150 µM, batimastat […] and 150 nM
Experimental: as §1, §2

[7] = system: coagulopathic activity of Daboia russelii venom (citrated bovine plasma); assay: plasma clotting assay; format: biochemical; design: key to maximum clotting velocity: max of first derivative of A595 clot curve (max clotting velocity); conditions: for maximum clotting velocity: Daboia russelii venom 100 ng, independent repeats
Experimental: We used a previously developed plasma clotting assay[35] to measure venom-induced coagulation. Briefly, 100 ng of each venom was incubated at 37 °C for 30 min in the presence or absence of inhibitors (150 µM to 150 nM final concentrations). The final reaction consisted of 10 µl venom ± inhibitors in PBS, 20 µl 20 mM CaCl2, and 20 µl citrated bovine plasma (VWR). The samples were pipetted in triplicate into 384-well plates, and absorbance monitored at 595 nm for 2 h at 25 °C on an Omega FLUOstar instrument. We calculated the maximum clotting velocity of each of the curves as per clot waveform analysis, by calculating the maximum of the first derivative. The means of at least three independent experimental runs for each condition were plotted at each inhibitor concentration with SEMs.

With `CNC(=O)[C@@H](NC(=O)[C@H](CC(C)C)[C@H](O)C(=O)NO)C(C)(C)C` [marimastat] the “thrombin-antithrombin (TAT) levels, drug-only control animals” value [1] was 16.1111 ng/mL and 15.7371 ng/mL and 12.5653 ng/mL, the “SVMP activity, percentage of the venom-only sample” value (“SVMP activity, percentage” for short) ([2]; inhibitor 15 µM) was 15.1667% and 15.8748% and 15.6727% and the “SVMP activity, percentage” value ([2]; inhibitor 150 µM) was 14.1911% and 15.0205% and 14.976%. For the same compound, the “SVMP activity, percentage” value [3] was 11.481% and 22.9494% and 21.3373%, the “SVMP activity, percentage” value ([4]; inhibitor 15 µM) was 19.3205% and 20.8108% and 21.1203% and the “SVMP activity, percentage” value ([4]; inhibitor 150 µM) was 18.1136% and 19.6025% and 15.3204%. The “SVMP activity, percentage” value ([5]; inhibitor 15 µM) was 33.0579% and 34.1722% and 57.3186%, the “SVMP activity, percentage” value ([5]; inhibitor 150 µM) was 29.6154% and 33.7275% and 43.4535% and the “animals surviving the 6 h experiment (groups of five)” value (E. ocellatus venom; 45 µg E. ocellatus venom preincubated with 60 µg inhibitor/mouse, i.v.) was “four”. The “protection against venom-induced lethality” value (E. ocellatus venom; 45 µg E. ocellatus venom preincubated with 60 µg of each drug, i.v., 6 h) was “prolonged the survival”, the “thrombin-antithrombin (TAT) levels, range in group” value (E. ocellatus venom; plasma after euthanasia, E. ocellatus venom + 60 µg of each drug, venom-only mean 1127.3, normal mice 10.2–15.9) was 231.2 to 267.9 ng/mL and the “neutralization of SVMP bioactivity” value [6] was “complete in vitro neutralization”. For the same compound, the “effect on clotting after complete neutralization of SVMP activity” value ([7]; D. russelii venom, high doses) was “revealed clear venom anticoagulant effects”, the maximum clotting velocity ([7]; inhibitor 15 µM) was 0.01941 and 0.01206 and 0.01103 and the maximum clotting velocity ([7]; inhibitor 150 µM) was 0.005735 and 0.003235.

Source: article PMC7738508, “A therapeutic combination of two small molecule toxin inhibitors provides broad preclinical efficacy against viper snakebite” (Nature Communications, 2020)
